Like-named read-outs stand apart in the source and are kept apart here.
Assays:
[1] = test system: KARPAS-422 cells; experiment: Cellular proliferation assay (AlamarBlue, 144 h); assay type: cell-based; conditions: KARPAS-422 cells, 6-day (144 h), AlamarBlue; read-out: KARPAS (6-day) Anti-proliferation IC50
Experimental: Cell viability was determined by means of the AlamarBlue® reagent (Thermo Fisher Scientific) following instructions from the manufacturer. […] Anti-proliferative IC50s were calculated by fitting the normalized AlamarBlue® fluorescence values to a 4-parameter logistic equation using the Electronic Notebook (ELN) software from IDBS.

[2] = biological target: T1, PRC2/EZH2+/+ (Homo sapiens, UniProt Q15910); experiment: Equilibrium binding thermodynamics (van't Hoff analysis of ePCA/kPCA at 5-37 °C); conditions: ePCA at 5-37 °C, wild type EZH2
T1 construct: purchased Active Motif
Experimental: For thermodynamic analysis of the binding to EZH2+/+ the probe characterization, equilibrium and kinetic probe competition assays described above (previously conducted at 25 °C) were performed at 5, 15, 30 and 37 °C. […] For measurements at 25, 30 and 37 °C, the temperature control functionality of the instrument was used.
Equilibrium and kinetic binding constants obtained at various temperatures were used to determine the thermodynamic parameters by van’t Hoff and Eyring analysis, as described elsewhere for SPR and radioligand binding experiments[46],[69]. For the van’t Hoff thermodynamic analysis, changes in entropy ΔS° and enthalpy ΔH° were estimated by linear regression using the van’t Hoff equation. lnKA=ΔS^∘/R-ΔH^∘/RT,
Changes in Gibb’s free energy ΔG° were calculated according to. ΔG^∘T=ΔH^∘-T×ΔS^∘
Additionally, the possible temperature dependence of the thermodynamic parameters was considered using the integrated form of the van’t Hoff equation[47] for nonlinear regression to yield the changes in entropy, enthalpy, and heat capacity ΔCp: ln KA=-ΔH^∘T^∘/RT+ΔS^∘T^∘/R+ΔCp/R[T-T^∘/T-lnT/T^∘],

[3] = test system: H3K27me3 mark in MDA-MB-231 cells; experiment: High content analysis (HCA) of cellular H3K27me3 mark, washout format; assay type: cell-based; conditions: for IC50: H3K27 methylation HCA, read-out: Mean IC50
Experimental: In the low- and high-signal control wells, test compounds were replaced by 10 µM of EZH2 inhibitor (equal to unlabeled probe from ePCA and kPCA) or DMSO, respectively. […] After fixation, the cells were washed with PBS and incubated with 1% BSA blocking solution at RT for 1 h. Blocking solution was discarded, primary monoclonal antibody rabbit Tri-methyl-histone H3K27 (C36B11, Cell signaling) diluted 1:200 in blocking solution was added and incubated overnight at 4 °C. […] Afterwards, cells were washed three times with PBS and incubated at 4 °C until measuring. Fluorescence signals were captured by an Opera Phenix™ High Content Screening (HCA) system (Perkin Elmer) by 10× magnification. […] Microscopy images were initially visualized and preprocessed with MetaXpress High Content Image Acquisition & Analysis Software (Molecular Devices) as previously described. Raw data import, normalization, quality control and fitting curves for IC50 determination of tested compounds were done with Genedata Screener® for high-content screening. Wells with no recognizable signals were masked and the average intensity of the trimethylation signal was normalized to the DMSO control (0%).

[4] = biological target: T2, PRC2/EZH2Y641N (Homo sapiens, UniProt Q15910, Y641N); experiment: Kinetic probe competition assay (kPCA), TR-FRET; assay type: binding; conditions: calculated
T2 construct: Synthetic cDNA encoding N-terminal 6His-tagged full length EZH2^Y641N; 6His (N); made in house; host or cells: Sf9 insect cells (baculovirus co-infection)
From the text: (§1) Biotinylated PRC2 complexes and the fluorescent probe used in TR-FRET assays were generated as described in the supplementary methods section.

[5] = biological target: T3, PRC2/EZH1 (Homo sapiens, UniProt Q92800); experiment: Scintillation proximity assay (SPA) of H3K27 methylation; assay type: biochemical
T3 construct: N-terminal 6His-tagged full length EZH2^Y641N, EZH2^Y111L, EZH2^Y111D, EZH2^Y641N, Y661DEZH2, EZH1; 6His (N); made in house; host or cells: Sf9 insect cells (baculovirus co-infection)
Experimental: Assay-ready plates containing 50 nl of compound dilutions and DMSO controls were filled with 2.5 µL enzyme solution and pre-incubated for 15 min. […] Experiments were also performed without pre-incubation of enzyme and compounds. In this case, the substrate solution was added before enzyme. The reaction was stopped using 1.6 µg/µl streptavidin beads (Perkin Elmer) and 700 µM of SAM (Perkin Elmer). The plates were sealed with transparent foil.
For equilibrium binding competition (ePCA) and SPA enzyme inhibition assays, raw data import, quality control, normalization, and curve fitting to a 4-parameter logistic equation for IC50 determination were performed using the Genedata Screener® software (Genedata AG). ePCA Ki values were either calculated using the Cheng-Prussof equation[68] or with the GraphPad Prism model “One-site—Fit Ki”.

[6] = biological target: T1, PRC2/EZH2+/+; experiment: Kinetic probe competition assay (kPCA), TR-FRET; assay type: binding
Experimental: as §1
For measurements at 25, 30 and 37 °C, the temperature control functionality of the instrument was used.
TR-FRET kPCA traces were exported via Microsoft Excel to GraphPad Prism, where non-specific signals were subtracted and kinetic association competition traces were fitted to the Motulsky–Mahan model “kinetics of competitive binding” to obtain kon (k3), koff (k4) and KD parameters.

[7] = in vitro; assay type: in vitro ADME; conditions: 2 µM, 2 h, 37 °C, basolateral to apical
Experimental: Cells were kept at 37 °C in a humidified 5% CO2 atmosphere. Before the permeation assay was run, the culture medium was replaced by an FCS-free HEPES carbonate transport buffer (pH 7.2). For assessment of monolayer integrity, the transepithelial electrical resistance was measured. Test compounds were pre-dissolved in DMSO and added either to the apical or basolateral compartment at a final concentration of 2 µM. Before and after 2 h incubation at 37 °C, samples were taken from both compartments. Analysis of compound content was conducted after precipitation with methanol by LC/MS/MS analysis. Reference compounds were analyzed in parallel as assay control. Permeability (Papp) was calculated in the apical to basolateral (A → B) and basolateral to apical (B → A) directions. The efflux ratio basolateral (B) to apical (A) was calculated by dividing Papp B–A by Papp A–B.

With `CC[C@H](C)n1cc(C)c2c(C(=O)NCc3c(C)cc(C)[nH]c3=O)cc(-c3ccc(N4CCNCC4)nc3)cc21` [Compound 4, GSK126] the IC50 [1] was 0.28 µM, the “binding driving force, polynomial van't Hoff analysis” value [2] was “entropy-driven” and the IC50 ([3]; incubation time 0.5 h, washout time 71.5 h) was 5.8 µM. It also gave an IC50 ([3]; incubation time 1 h, washout time 71 h) of 2.9 µM, an IC50 ([3]; incubation time 2 h, washout time 70 h) of 2.4 µM and an IC50 ([3]; incubation time 4 h, washout time 68 h) of 1.8 µM. It also gave an IC50 ([3]; incubation time 24 h, washout time 48 h) of 1.4 µM, an IC50 ([3]; incubation time 48 h, washout time 24 h) of 0.7 µM and an IC50 ([3]; incubation time 72 h, washout time 0 h) of 0.31 µM. The “AUC (a.u.)” value ([3]; HCA H3K27 methylation washout pIC50 AUC over all incubation/washout times) was 81.2 a.u, the “Calculated RT” value ([4]; EZH2Y641N (+ H3K27me3)) was 0.22 h and the “Calculated RT” value ([4]; EZH2Y641N (- H3K27me3)) was 0.0666 h. It also gave an IC50 ([5]; 0' enzyme:inhibitor pre-incubation, read-out: SPA Mean IC50 (M) - 0' enzyme:inhibitor pre-incubation EZH1) of 1.1e-06 M, an IC50 ([5]; 15' enzyme:inhibitor pre-incubation, read-out: SPA Mean IC50 (M) - 15' enzyme:inhibitor pre-incubation EZH1) of 4.4e-07 M and an IC50 ([5]; 60' enzyme:inhibitor pre-incubation, read-out: SPA Mean IC50 (M) - 60' enzyme:inhibitor pre-incubation EZH1) of 1e-06 M. For the same compound, the “Calculated RT” value ([6]; EZH2+/+ (+ H3K27me3)) was 0.44 h, the “RT (Calculated)” value ([6]; EZH2+/+ (- H3K27me3), 15 °C) was 0.0145 h and the “RT (Calculated)” value ([6]; EZH2+/+ (- H3K27me3), 30 °C) was 0.031 h. The “RT (Calculated)” value ([6]; EZH2+/+ (- H3K27me3), 37 °C) was 0.0092 h, the “Calculated RT” value ([6]; EZH2+/+ (- H3K27me3)) was 0.06 h and the “PK Caco-2 Flux Papp B-A (mean)” value [7] was 9.838 ×10⁻⁶ cm/s.
